# Results from patent US20100159528A1, “POLYMERASE STABILIZATION” (GE HEALTHCARE BIO-SCIENCE CORP., priority 2007, published 2010).
# Columns and labels:
# Tba DNA polymerase = test: PCR assay for detergents screening: amplification of a 1 kb λDNA fragment with Tba purified and stored without detergents; format: biochemical, Thermococcus barossii; conditions: for % Activity relative to TWEEN ® 20: PCR yield of 1 kb λDNA fragment, Agilent Bioanalyzer; for PCR yield higher than the positive control (TWEEN® 20): PCR reactions containing the detergent; for stabilization and activation of DNA polymerase (in words): detergent added into PCR reaction mix at 0.01% and 0.1% (FIG. 2)
# Experimental: In this experiment, two lots of DNA polymerase that were purified and stored in buffers with/without detergents were tested. Each of the tested DNA polymerase was first diluted into 20 folds in buffers with and without of TWEEN® 20, respectively, prior to PCR and then equal units of enzyme was added into PCR mix. PCRs were performed in 25 μl volume in with 200 nM of forward and reverse primers, 200 μM dNTP, 1.0 unit of Tba and 1.0 ng template DNA. 1 kb human genomic DNA and 1 kb lambda DNA fragments were amplified. Reaction buffer contains 10 mM Tris-HCl, pH 9.0, 50 mM KCl, and 1.5 mM MgCl2. The PCR reaction was started by 2 minutes initial heating at 95° C., followed by 35 cycles with 95° C. for 30 s, 55° C. 30 s, and 72° C. for 60 s, and then final extension at 72° C. for 5 min. The PCR products were analyzed with Agilent Bioanalyzer.
# The PCR assay was used for the detergents screening. The tested detergents were first dissolved in molecular biology grade water and neutralized to pH7 with a sodium hydroxide solution to make final concentration of 5% (W/V) stock solutions. The 5% detergent solutions were then used for the screening by either adding them into enzyme dilution buffer or spiked into PCR mix. The amplification of a 1 kb λDNA fragment was used test the effect of each detergent on the Tba stability and activity. The PCR conditions are the same as described earlier. Tba that was purified and stored in the absence of detergents was used for the tests. The tested detergents were spiked into the PCR reactions at a final concentration of 0.01%, 0.05%, and 0.1%, respectively. The PCR yields were quantitated by Agilent Bioanalyzer.
# DNA polymerase [1] = conditions: for effect of high detergent concentration on stability and activity: Concentrations above 0.5% (W/V)
# Experimental: For ♦, each detergent is present at the indicated amount.
# (§1) The stabilization functions of these two detergents are tested for δJSER DNA polymerase as well. […] In addition, the stabilization effects of these two detergents on DNA polymerase were also tested in the activity assay and thermostability assay.
# δJSER DNA polymerase = test: Stabilization/activation test for δJSER DNA polymerase; format: biochemical, JSER; conditions: compared with the effect on Tba
# Experimental: as §1
# DNA polymerase [2] = system: DNA polymerase
# Experimental: An enzyme will have a maximal activity rate, which is preferably measured under conditions of saturating substrate concentration and at a selected set of environmental conditions including temperature, pH and salt concentration. For the DNA polymerases described herein, preferred conditions for measuring activity are 25 mM TAPS (tris-hydroxymethyl 25 methylaminopropane sulfonic acid) buffer, pH 9.3 (measured at 25° C.), 50 mM KCl, 2 mM MgCl2, 1 mM 2- mercaptoethanol, 0.2 mM each of dGTP, dCTP, dTTP, 0.2 mM [α-33P]-dATP (0.05-0.1 Ci/mmol) and 0.4 mg/mL activated salmon sperm DNA. The reaction is allowed to proceed at 74° C. Exemplary methods for measuring the DNA polymerase activity of an enzyme under such 30 conditions are provided hereinafter.
# as §1
# [3] = Detergent Conc. 0.01% in PCR reaction
# [4] = Detergent Conc. 0.05% in PCR reaction
# [5] = Detergent Conc. 0.10% in PCR reaction
Substance,"formation of PCR products depending on detergent in the enzyme dilution buffer (Tba DNA polymerase; Tba diluted 20 fold in buffer with/without TWEEN® 20, 1 kb λDNA and human genomic DNA fragments (FIG. 1))",stabilization effect in the thermostability test compared with TWEEN® 20 (DNA polymerase [1]),"DNA polymerase remaining active after heating (DNA polymerase [1]; 95° C., 15 minutes, 1x PCR buffer, compared with NP40 and TWEEN® 20 (FIG. 3))",effect of high detergent concentration on stability and activity (DNA polymerase [1]),activation of δJSER DNA polymerase (δJSER DNA polymerase),% Activity relative to TWEEN ® 20 (Tba DNA polymerase; [3]) [%],% Activity relative to TWEEN ® 20 (Tba DNA polymerase; [4]) [%],% Activity relative to TWEEN ® 20 (Tba DNA polymerase; [5]) [%],PCR yield higher than the positive control (TWEEN® 20) (Tba DNA polymerase),stabilization and activation of DNA polymerase (in words) (Tba DNA polymerase),stabilization effect in the activity assay compared with TWEEN® 20 (DNA polymerase [2])
TWEEN® 20 [reference compound],PCR products were only obtained from the reactions that the enzymes were diluted in a buffer containing the detergent,–,–,–,–,–,–,–,–,–,–
"polyoxyethylene nonylphenol ether, phosphate [RHODAFAC™ RE-960]",–,same or better stabilization effects,more DNA polymerase remains active,do not improve stability but do not decrease activity,same activation,130.7,165.8,167.1,about 30%,work very well in stabilization and activation of DNA polymerase,same or better stabilization effects
"polyoxyethylene tridecyl ether, phosphate [RHODAFAC™ RS-960]",–,same or better stabilization effects,–,do not improve stability but do not decrease activity,same activation,101.8,167.9,178.6,about 30%,work very well in stabilization and activation of DNA polymerase,same or better stabilization effects
